The source of these data is patent US20190336489A1, “NON PEPTIDE HETEROBIVALENT MOLECULES FOR TREATING INFLAMMATORY DISEASES” (GLAXOSMITHKLINE INTELLECTUAL PROPERTY DEVELOPMENT LIMITED, priority 2017, published 2019).

Marks after values point to notes of the source that are not given here. Bounds are passed on as bounds.

Assay [1] concerns the target T1, CCR5 (Homo sapiens, UniProt P51681).
T1 construct: expressed in transfected cells; host or cells: CEMNKR
As to the kind of experiment: Antibody Dependent Cellular Cytotoxicity (ADCC) reporter assay, CCR5 target cells. The assay is classed as cell-based. As to conditions: CEMNKR cells overexpressing CCR5. An excerpt:
(§1) The compounds described herein have been characterized in an ADCC reporter assay (see Section 1.2 ADCC reporter for protocol). […] Furthermore, the assay also confirms that this formed complex can engage and activate the Fc receptors on immune cells. Lastly, the assay provides both potency (EC50) and efficacy (signal to background ratio) for each compound in a dose dependant manner.
(§2) This assay has four components • 1) Heterobivalent Compound consisting of a targeting ligand and a hapten connected by a linker (ranging from 10 uM-1 pM) • 2) A hapten antibody with functional Fc domain (typical concentrations are 0.01 ug/mL-200 ug/mL) • 3) Target cells—CHOK1 cells engineered to overexpress either CCR1, CCR2, or CCR3, or CEMNKR cells engineered to overexpress CCR5 (typically 1000-20,000 cells per well) • 4) Reporter cells—Jurkat cells engineered to express FcgRIIIa (ADCC reporter assay) and with a reporter gene (luciferase) under the control of the NFAT promoter (typically 3000-75,000 cells per well)
(§3) Reagents are combined in final volume of 20 uL in 384-well tissue culture treated plated.
All components are incubated together for ˜12-18 hours. […] Signal is measured on a microplate reader capable of measuring luminescence. Signal:Background is calculated by dividing the signal of a test well by the signal obtained when no compound is included in the assay. […]
For orientation: Reporter assays use an easily measured gene product as a stand-in for the process of interest.

Assay [2] has as its target T2, CCR3 (Homo sapiens, UniProt P51677).
T2 construct: expressed in transfected cells; host or cells: CHOK1
T2 sequence (P51677 1-355): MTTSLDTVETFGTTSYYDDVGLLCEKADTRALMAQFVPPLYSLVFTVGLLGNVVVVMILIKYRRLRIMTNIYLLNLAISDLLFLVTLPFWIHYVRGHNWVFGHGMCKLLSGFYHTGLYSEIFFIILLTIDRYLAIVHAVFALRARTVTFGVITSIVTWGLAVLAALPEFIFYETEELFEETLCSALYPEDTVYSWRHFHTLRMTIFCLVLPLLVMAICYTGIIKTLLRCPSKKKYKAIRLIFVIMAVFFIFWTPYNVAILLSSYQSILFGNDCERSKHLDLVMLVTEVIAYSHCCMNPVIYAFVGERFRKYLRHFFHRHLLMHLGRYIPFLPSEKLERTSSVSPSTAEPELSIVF
As to the kind of experiment: Antibody Dependent Cellular Cytotoxicity (ADCC) reporter assay, CCR3 target cells. The class given is cell-based. The following applies: CHOK1 cells overexpressing CCR3.
Text: as §1, §2, §3
All components are incubated together for ˜12-18 hours. Add BioGlo Detection reagent (from Promega) to lyse the cells and provide substrate for the luciferase reporter protein. Signal is measured on a microplate reader capable of measuring luminescence. Signal:Background is calculated by dividing the signal of a test well by the signal obtained when no compound is included in the assay. EC50 calculations were done using Graphpad Prism Software, specifically a nonlinear regression curve fit (Y=Bottom+(Top−Bottom)/(1+10^((Log EC50−X)*HillSlope)))

Setting [3] is: Jurkat FcgRIIIa NFAT-luciferase reporter cells, EC50 class, read-out: ADCC potency.
Where [4] appears, read: maximum signal:background (S/B).

T1 sequence (P51681 whole entry): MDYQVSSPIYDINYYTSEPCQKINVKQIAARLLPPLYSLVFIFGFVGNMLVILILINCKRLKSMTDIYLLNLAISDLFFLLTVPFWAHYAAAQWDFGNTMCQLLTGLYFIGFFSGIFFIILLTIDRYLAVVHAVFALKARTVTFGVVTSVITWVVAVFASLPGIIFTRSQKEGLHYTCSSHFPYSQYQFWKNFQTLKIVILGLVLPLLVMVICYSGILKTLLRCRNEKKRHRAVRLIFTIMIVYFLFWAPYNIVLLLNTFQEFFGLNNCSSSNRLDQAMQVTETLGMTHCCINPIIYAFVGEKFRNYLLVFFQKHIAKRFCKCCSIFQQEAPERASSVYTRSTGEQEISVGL

For the compound `O=C(NCc1ccc(C(=O)NCCOCCOCCOCCOCCOCCOCCOCCOCCOCCNc2ccc([N+](=O)[O-])cc2[N+](=O)[O-])cc1)NC[C@H]1CN(Cc2ccc(Cl)c(Cl)c2)CCO1` [Compound 20, (S)-4-((3-((4-(3,4-dichlorobenzyl)morpholin-2-yl)methyl)ureido)methyl)-N-(29-((2,4-dinitrophenyl)amino)-3,6,9,12,15,18,21,24,27-nonaoxanonacosyl)benzamide], the EC50 in assay [1] (setting [3]) and in assay [2] (setting [3]) was less than 1 nM in each case. Besides, the ADCC efficacy entry in assay [1] (setting [4]) is on record as “+++^g (Maximum Signal:Background > 70 = +++)”; in assay [2] (setting [4]) it was “+++^f (Maximum S:B > 20 = +++)”.
